Measured values taken from patent US6020374A, “Biologically active synthetic dye compounds” (priority 1998, dated 2000).

Assays:
MCF-7 cells = test: Cell death estimation, cycloheximide-exposed MCF-7 cells (trypan blue); type: cell-based
Procedure: Subconfluent cultures of MCF-7 cells in 35 mm dishes, were deprived of serum for 20 hours and then exposed to 30 μg/ml cycloheximide in the presence or absence of increasing concentrations of fractionated ATA, crude ATA or EB. After 48 hours, the cells were detached with trypsin. The medium and the detached cells were pooled and centrifuged at 1000×g for 10 mins. Cell viability was estimated by adding an equivalent volume of trypan blue solution to an aliquot of suspended cells. Stained and unstained cells were counted on a hemocytometer (10^3 cells were counted for each determination).
Subconfluent, 20 hours starved MCF-7 cells were exposed to 30 μg/ml
of cycloheximide in the presence of increasing
concentrations of fractionated ATA (0, 6, 12, 25, 50 μg/ml). After
48 hours, percent of dead cells was
determined as described under "Experimental procedures". In the
presence of cycloheximide only, 60-70% of
the cells were dead after 48 hours.
Cultures of […] cells were exposed to 30 μg CX for 48 hours in the presence of EB, ATA, IGF-1, or nothing.

[1] = test system: MAPK-1 (44 kDa) and MAPK-2 (42 kDa); test: Activation of MAPKs in MCF-7 cells (anti-active MAPK immunoblot); type: cell-based; conditions: 5 mins., ATA, EB each at 300 μg/ml, IGF-1 20 or 40 ng/ml
Procedure: FIG. 7 is the effect of ATA and EB on activation of MAPKs: MCF-7 cells were treated for 5 mins. with ATA, EB, each at 300 μg/ml, 20 ng/ml or 40 ng/ml IGF-1. Cell lysates, solubilized in Buffer C, were subjected to 12% SDS-PAGE and immunoblotted with an anti-active MAPK antibody. The membrane, after ECL detection, was stripped of bound antibody and blotted with an anti-MAPK antibody.
Nitrocellulose blots of proteins were incubated with the antibodies, and proteins were detected by enhanced chemiluminescence using horseradish peroxidase-labeled protein A, horseradish peroxidase-labeled anti rabbit IgG or horseradish peroxidase-labeled anti-mouse IgG.
The activated forms of MAPKs were detected by anti-active MAPK immunoblotting in the MCF-7 cell's lysates. […] Blotting with anti MAPKs antibodies confirms that similar amounts of MAPKs were present in treated and non-treated cells.

For C[C@@H]1C[C@@H]([C@H](O)CC2CC(=O)NC(=O)C2)C(=O)[C@@H](C)C1 [CX, cycloheximide, reference compound], the Percent dead cells (MCF-7 cells; CX only, 30 μg, 48 hours, Control without CX 10 ± 3) was 56 ± 5% and the cytotoxicity at 30 µg/mL (MCF-7 cells; Homo sapiens, MCF7, 48 h, read-out: cells dead after 48 hours) was 60 to 70%.
CCCCCCCCCCCCCC(=O)O[C@@H]1[C@@H](C)[C@@]2(O)[C@@H](C=C(CO)C[C@]3(O)C(=O)C(C)=C[C@@H]23)[C@@H]2C(C)(C)[C@]12OC(C)=O [TPA, reference compound] was tested, and the “Phosphorylated (active) isoforms MAPK-1 and MAPK-2” value [1] was “clearly detected”.
